Measurements taken from ChEMBL document CHEMBL1149902, “Steroidal triglycosides, kurilensosides A, B, and C, and other polar steroids from the Far Eastern starfish Hippasteria kurilensis” (2008).

Legend:
Type in all cases: functional
Mesocentrotus nudus [1] = experiment: Inhibition of Strongylocentrotus nudus egg fertilization by Strongylocentrotus nudus sperm at 67 uM
Mesocentrotus nudus [2] = experiment: Inhibition of Strongylocentrotus nudus egg fertilization by Strongylocentrotus nudus sperm at 13 uM
Mesocentrotus nudus [3] = experiment: Inhibition of Strongylocentrotus nudus egg fertilization by Strongylocentrotus nudus sperm
Mesocentrotus nudus [4] = experiment: Inhibition of Strongylocentrotus nudus egg fertilization by Strongylocentrotus nudus sperm at 55 uM

Row | SMILES | EC100 (Mesocentrotus nudus [3]) [×10⁻⁵ M] | inhibition at 55 µM (Mesocentrotus nudus [4]) [%] | other results
1 | CO[C@H]1[C@H](OC[C@@H]2O[C@@H](O[C@@H](CC[C@@H](C)[C@H]3C[C@@H](O)[C@@H]4[C@]3(C)CC[C@H]3[C@@]4(O)C[C@H](O)C4[C@@H](O)[C@@H](O)CC[C@@]43C)C(C)C)[C@H](O)[C@H]2O)OC[C@@H](O)[C@@H]1O (stereo partly specified) [KURILENSOSIDE D] |  |  | inhibition at 67 µM (Mesocentrotus nudus [1]): 100%
2 | CC(C)[C@@H](O)CC[C@@H](C)[C@H]1C[C@H](O)[C@@H]2[C@]1(C)CC[C@H]1[C@@]2(O)C[C@@H](O)C2[C@@H](O)[C@@H](O)CC[C@@]21C (stereo partly specified) |  |  | inhibition at 13 µM (Mesocentrotus nudus [2]): 100%
3 | CC(C)[C@@H](O)/C=C/[C@@H](C)[C@H]1C[C@@H](O)C2[C@@]3(O)C(CC[C@@]21C)[C@@]1(C)CC[C@H](O)[C@H](O)C1[C@@H](OS(=O)(=O)[O-])[C@H]3O.[Na+] (stereo partly specified) | 11 |  | 
4 | CO[C@H]1[C@H](O[C@H]2CC[C@@]3(C)C([C@H](O)C[C@@]4(O)[C@@H]5[C@@H](O)C[C@H]([C@H](C)CC[C@H](O[C@@H]6O[C@@H](CO)[C@H](OS(=O)(=O)[O-])[C@H]6O[C@@H]6O[C@@H](CO)[C@H](O)[C@H]6O)C(C)C)[C@@]5(C)CC[C@@H]43)[C@H]2O)OC[C@@H](O)[C@@H]1O.[Na+] (stereo partly specified) [KURILENSOSIDE A] | 8.9 |  | 
5 | CO[C@H]1[C@H](OC[C@@H]2O[C@@H](O[C@@H](CC[C@@H](C)[C@H]3C[C@@H](O)[C@@H]4[C@]3(C)CC[C@H]3[C@@]4(O)[C@H](O)[C@H](O)C4[C@@H](O)[C@@H](O[C@@H]5OC[C@@H](O)[C@H](O)[C@H]5OC)CC[C@@]43C)C(C)C)[C@H](O)[C@H]2O)OC[C@@H](O)[C@@H]1O (stereo partly specified) [KURILENSOSIDE C] |  | 100 | 
6 | CO[C@H]1[C@H](O[C@H]2CC[C@@]3(C)C([C@H]2O)[C@@H](O)[C@@H](O)[C@@]2(O)[C@@H]4[C@H](O)C[C@H]([C@H](C)CC[C@H](O[C@@H]5O[C@@H](CO[C@H]6OC[C@H](O)[C@@H](O)[C@@H]6O)[C@H](O)[C@H]5O)C(C)C)[C@@]4(C)CC[C@@H]23)OC[C@@H](OC)[C@@H]1O (stereo partly specified) [KURILENSOSIDE B] |  | 100 | 
